The subject of this experiment is pathogenic bacteria. Kind of experiment: MIC by microdilution broth method (NCCLS M7-A4), in vitro antibacterial activity. In kind it is cell-based. An outline of the steps:
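MIC read after 35 °C incubation for 16–20 h relative to drug-free growth wells. Cation-adjusted Mueller-Hinton broth with two-fold compound dilutions, organisms at roughly 5×10^4 CFU/well final. Method follows NCCLS document M7-A4.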

Setting [1] is: Staphylococcus aureus, Organism A: Staphylococcus aureus OC4172, read-out: MIC.
[2] abbreviates: Streptococcus pneumoniae, ATCC49619, Organism E: Streptococcus pneumoniae ATCC 49619, read-out: MIC.
Setting [3] is: Streptococcus pneumoniae, Organism B: fluoroquinolone-resistant clinical isolate of Streptococcus pneumoniae (QRDR amino acid substitutions).
Setting [4] is: Streptococcus pneumoniae, Organism C: fluoroquinolone-resistant clinical isolate of Streptococcus pneumoniae (QRDR amino acid substitutions).
[5] abbreviates: Streptococcus pneumoniae, Organism D: fluoroquinolone-resistant clinical isolate of Streptococcus pneumoniae (QRDR amino acid substitutions).

Values after ≈ are worked out from the molar mass of the structure shown. Read-outs that look alike come from different tables or passages of the source. Some results are limits rather than exact numbers.

Usually MIC stands for the least concentration at which growth counts as inhibited.

For `COc1c(N2CCC/C(=C(/C)CN)C2)c(F)cc2c(=O)c(C(=O)O)cn(C3CC3)c12` [Compound 392, (E)-7-[3-(2-Amino-1-methyl-ethylidene)-piperidin-1-yl]-1-cyclopropyl-6-fluoro-8-methoxy-4-oxo-1,4-dihydro-quinoline-3-carboxylic acid], the minimum inhibitory concentration (MIC) was 0.25 µg/mL (≈ 0.602 µM) under setting [1]; 1 µg/mL (≈ 2.41 µM) under setting [2]; 16 µg/mL (≈ 38.5 µM) under setting [3]; > 16 µg/mL under setting [4]; 8 µg/mL (≈ 19.3 µM) under setting [5].
For `COc1c(N2CCC/C(=C(/Cl)CN)CC2)c(F)cc2c(=O)c(C(=O)O)cn(C3CC3)c12` [Compound 393, (Z)-7-[4-(2-Amino-1-chloro-ethylidene)-azepan-1-yl]-1-cyclopropyl-6-fluoro-8-methoxy-4-oxo-1,4-dihydro-quinoline-3-carboxylic acid], the minimum inhibitory concentration (MIC) runs as follows: under setting [1], 0.25 µg/mL (≈ 0.556 µM); under setting [2], 0.5 µg/mL (≈ 1.11 µM); under setting [4], 8 µg/mL (≈ 17.8 µM); under setting [5], 2 µg/mL (≈ 4.45 µM).
Take `COc1c(N2CCC/C(=C(\Cl)CN)CC2)c(F)cc2c(=O)c(C(=O)O)cn(C3CC3)c12` [Compound 394, (E)-7-[4-(2-Amino-1-chloro-ethylidene)-azepan-1-yl]-1-cyclopropyl-6-fluoro-8-methoxy-4-oxo-1,4-dihydro-quinoline-3-carboxylic acid]: the MIC stood at 0.03 µg/mL (≈ 0.0667 µM) under setting [1]; 0.5 µg/mL (≈ 1.11 µM) under setting [2]; 1 µg/mL (≈ 2.22 µM) under setting [3]; 4 µg/mL (≈ 8.89 µM) under setting [4]; 1 µg/mL (≈ 2.22 µM) under setting [5].
Regarding `NC/C(F)=C1\CCCN(c2c(F)cc3c(=O)c(C(=O)O)cn(C4CC4)c3c2OC(F)F)C1` [Compound 395, (Z)-7-[3-(2-Amino-1-fluoro-ethylidene)-piperidin-1-yl]-1-cyclopropyl-8-difluoromethoxy-6-fluoro-4-oxo-1,4-dihydro-quinoline-3-carboxylic acid], the MIC under setting [1] was determined as 0.06 µg/mL (≈ 0.132 µM); the minimum inhibitory concentration (MIC) under setting [2] was 0.5 µg/mL (≈ 1.1 µM); the MIC under setting [3] came to 4 µg/mL (≈ 8.78 µM); the MIC under setting [4] is 8 µg/mL (≈ 17.6 µM); the minimal inhibitory concentration (MIC) under setting [5] was found to be 0.5 µg/mL (≈ 1.1 µM).
For `NC/C=C1/CCCN(c2c(F)cc3c(=O)c(C(=O)O)cn(C4CC4)c3c2OC(F)F)C1` [Compound 396, (Z)-7-[3-(2-Amino-ethylidene)-piperidin-1-yl]-1-cyclopropyl-8-difluoromethoxy-6-fluoro-4-oxo-1,4-dihydro-quinoline-3-carboxylic acid], the MIC under setting [1] is 0.03 µg/mL (≈ 0.0686 µM); the minimal inhibitory concentration (MIC) under setting [2] turned out to be 0.25 µg/mL (≈ 0.572 µM); the MIC under setting [3] worked out at 2 µg/mL (≈ 4.57 µM); the MIC under setting [4] was 4 µg/mL (≈ 9.14 µM); inhibition of growth under setting [5] (MIC) required 0.5 µg/mL (≈ 1.14 µM).
Consider `NC/C=C1\CCCN(c2c(F)cc3c(=O)c(C(=O)O)cn(C4CC4)c3c2OC(F)F)C1` [Compound 397, (E)-7-[3-(2-Amino-ethylidene)-piperidin-1-yl]-1-cyclopropyl-8-difluoromethoxy-6-fluoro-4-oxo-1,4-dihydro-quinoline-3-carboxylic acid], for which the minimal inhibitory concentration (MIC) reads like this: under setting [1], 0.06 µg/mL (≈ 0.137 µM); under setting [2], 0.5 µg/mL (≈ 1.14 µM); under setting [4], 8 µg/mL (≈ 18.3 µM); under setting [5], 2 µg/mL (≈ 4.57 µM).
For the molecule `C[C@H]1COc2c(N3CCC/C(=C(\F)CN)C3)c(F)cc3c(=O)c(C(=O)O)cn1c23` [Compound 398, (E)-9-[3-(2-Amino-1-fluoro-ethylidene)-piperidin-1-yl]-8-fluoro-(3S)-3-methyl-6-oxo-2,3-dihydro-6H-1-oxa-3a-aza-phenalene-5-carboxylic acid], the MIC by setting is: under setting [1], ≤ 0.015 µg/mL; under setting [2], 0.03 µg/mL (≈ 0.074 µM); under setting [3], 0.25 µg/mL (≈ 0.617 µM); under setting [4], 0.5 µg/mL (≈ 1.23 µM); under setting [5], 1 µg/mL (≈ 2.47 µM).
Consider `C[C@H]1COc2c(N3CCC/C(=C(/F)CN)C3)c(F)cc3c(=O)c(C(=O)O)cn1c23` [Compound 399, (Z)-9-[3-(2-Amino-1-fluoro-ethylidene)-piperidin-1-yl]-8-fluoro-(3S)-3-methyl-6-oxo-2,3-dihydro-6H-1-oxa-3a-aza-phenalene-5-carboxylic acid], for which the MIC was 0.5 µg/mL (≈ 1.23 µM) under setting [1]; 2 µg/mL (≈ 4.93 µM) under setting [2]; 4 µg/mL (≈ 9.87 µM) under setting [3]; > 16 µg/mL under setting [4]; > 16 µg/mL under setting [5].
Take `C[C@H]1COc2c(N3CCC/C(=C(\Cl)CN)C3)c(F)cc3c(=O)c(C(=O)O)cn1c23` [Compound 400, (E)-9-[3-(2-Amino-1-chloro-ethylidene)-piperidin-1-yl]-8-fluoro-(3S)-3-methyl-6-oxo-2,3-dihydro-6H-1-oxa-3a-aza-phenalene-5-carboxylic acid]: the MIC under setting [1] was ≤ 0.015 µg/mL; the MIC under setting [2] came to 0.06 µg/mL (≈ 0.142 µM); the minimal inhibitory concentration (MIC) under setting [3] came to 0.25 µg/mL (≈ 0.593 µM); the minimum inhibitory concentration (MIC) under setting [4] amounted to 0.5 µg/mL (≈ 1.19 µM); the MIC under setting [5] is 0.5 µg/mL (≈ 1.19 µM).
For `C[C@H]1COc2c(N3CCC/C(=C\CN)C3)c(F)cc3c(=O)c(C(=O)O)cn1c23` [Compound 401, (E)-9-[3-(2-Amino-ethylidene)-piperidin-1-yl]-8-fluoro-(3S)-3-methyl-6-oxo-2,3-dihydro-6H-1-oxa-3a-aza-phenalene-5-carboxylic acid], the MIC is 1 µg/mL (≈ 2.58 µM) under setting [1], 8 µg/mL (≈ 20.6 µM) under setting [2], > 16 µg/mL under setting [4] and > 16 µg/mL under setting [5].
Take `C[C@H]1COc2c(N3CCC/C(=C/CN)C3)c(F)cc3c(=O)c(C(=O)O)cn1c23` [Compound 402, (Z)-9-[3-(2-Amino-ethylidene)-piperidin-1-yl]-8-fluoro-(3S)-3-methyl-6-oxo-2,3-dihydro-6H-1-oxa-3a-aza-phenalene-5-carboxylic acid]: the MIC was 0.25 µg/mL (≈ 0.645 µM) under setting [1]; 2 µg/mL (≈ 5.16 µM) under setting [2]; 16 µg/mL (≈ 41.3 µM) under setting [3]; > 16 µg/mL under setting [4]; > 16 µg/mL under setting [5].
Regarding `C/C(CN)=C1\CCCN(c2c(F)cc3c(=O)c(C(=O)O)cn4c3c2OC[C@@H]4C)C1` [Compound 404, (Z)-9-[3-(2-Amino-1-methyl-ethylidene)-piperidin-1-yl]-8-fluoro-(3S)-3-methyl-6-oxo-2,3-dihydro-6H-1-oxa-3a-aza-phenalene-5-carboxylic acid], the minimal inhibitory concentration (MIC) runs as follows: under setting [1], 0.12 µg/mL (≈ 0.299 µM); under setting [2], 0.5 µg/mL (≈ 1.25 µM); under setting [3], 4 µg/mL (≈ 9.96 µM); under setting [4], 16 µg/mL (≈ 39.9 µM); under setting [5], > 16 µg/mL.
As for `COc1c(N2CCC/C(=C(\F)CN)C2)c(F)cc2c(=O)c(C(=O)O)cn([C@@H]3C[C@@H]3F)c12` [Compound 405, (E)-7-[3-(2-Amino-1-fluoro-ethylidene)-piperidin-1-yl]-6-fluoro-(1R,2S)-1-(2-fluoro-cyclopropyl)-8-methoxy-4-oxo-1,4-dihydro-quinoline-3-carboxylic acid], the MIC under setting [1] is ≤ 0.015 µg/mL; the minimal inhibitory concentration (MIC) under setting [2] was ≤ 0.25 µg/mL; the MIC under setting [3] is ≤ 0.12 µg/mL; the minimum inhibitory concentration (MIC) under setting [4] came out at 0.25 µg/mL (≈ 0.572 µM); the lowest concentration to inhibit growth under setting [5] (MIC) was 0.25 µg/mL (≈ 0.572 µM).
On to `COc1c(N2CCC/C(=C(/F)CN)C2)c(F)cc2c(=O)c(C(=O)O)cn([C@@H]3C[C@@H]3F)c12` [Compound 406, (Z)-7-[3-(2-Amino-1-fluoro-ethylidene)-piperidin-1-yl]-6-fluoro-(1R,2S)-1-(2-fluoro-cyclopropyl)-8-methoxy-4-oxo-1,4-dihydro-quinoline-3-carboxylic acid], for which the MIC under setting [1] amounted to 0.06 µg/mL (≈ 0.137 µM); the minimum inhibitory concentration (MIC) under setting [2] was 0.5 µg/mL (≈ 1.14 µM); the minimum inhibitory concentration (MIC) under setting [3] stood at 8 µg/mL (≈ 18.3 µM); the minimum inhibitory concentration (MIC) under setting [4] stood at 8 µg/mL (≈ 18.3 µM); 2 µg/mL (≈ 4.57 µM) was the least that counted as inhibitory under setting [5] (MIC).
Take `COc1c(N2CCC/C(=C(\Cl)CN)C2)c(F)cc2c(=O)c(C(=O)O)cn([C@@H]3C[C@@H]3F)c12` [Compound 407, (E)-7-[3-(2-Amino-1-chloro-ethylidene)-piperidin-1-yl]-6-fluoro-(1R,2S)-1-(2-fluoro-cyclopropyl)-8-methoxy-4-oxo-1,4-dihydro-quinoline-3-carboxylic acid]: the MIC is, setting by setting: under setting [1], ≤ 0.015 µg/mL; under setting [2], 0.03 µg/mL (≈ 0.0661 µM); under setting [3], 0.03 µg/mL (≈ 0.0661 µM); under setting [4], 0.25 µg/mL (≈ 0.551 µM); under setting [5], 0.12 µg/mL (≈ 0.264 µM).
Take `COc1c(N2CCC/C(=C/CN)C2)c(F)cc2c(=O)c(C(=O)O)cn([C@@H]3C[C@@H]3F)c12` [Compound 408, (Z)-7-[3-(2-Amino-ethylidene)-piperidin-1-yl]-6-fluoro-(1R,2S)-1-(2-fluoro-cyclopropyl)-8-methoxy-4-oxo-1,4-dihydro-quinoline-3-carboxylic acid]: the minimal inhibitory concentration (MIC) reads like this: under setting [1], 0.03 µg/mL (≈ 0.0715 µM); under setting [2], 0.25 µg/mL (≈ 0.596 µM); under setting [3], 1 µg/mL (≈ 2.38 µM); under setting [4], 2 µg/mL (≈ 4.77 µM); under setting [5], 2 µg/mL (≈ 4.77 µM).
With `COc1c(N2CCC/C(=C\CN)C2)c(F)cc2c(=O)c(C(=O)O)cn([C@@H]3C[C@@H]3F)c12` [Compound 409, (E)-7-[3-(2-Amino-ethylidene)-piperidin-1-yl]-6-fluoro-(1R,2S)-1-(2-fluoro-cyclopropyl)-8-methoxy-4-oxo-1,4-dihydro-quinoline-3-carboxylic acid], the MIC reads like this: under setting [1], 0.12 µg/mL (≈ 0.286 µM); under setting [2], 1 µg/mL (≈ 2.38 µM); under setting [4], > 16 µg/mL; under setting [5], > 16 µg/mL.
Consider `COc1c(N2CCC/C(=C(\C)CN)C2)c(F)cc2c(=O)c(C(=O)O)cn([C@@H]3C[C@@H]3F)c12` [Compound 410, (Z)-7-[3-(2-Amino-1-methyl-ethylidene)-piperidin-1-yl]-6-fluoro-(1R,2S)-1-(2-fluoro-cyclopropyl)-8-methoxy-4-oxo-1,4-dihydro-quinoline-3-carboxylic acid], for which the MIC runs as follows: under setting [1], ≤ 0.015 µg/mL; under setting [2], 0.06 µg/mL (≈ 0.138 µM); under setting [4], 0.5 µg/mL (≈ 1.15 µM); under setting [5], 1 µg/mL (≈ 2.31 µM).
Regarding `NC/C(F)=C1\CCCN(c2c(F)cc3c(=O)c(C(=O)O)cn(-c4nc(N)c(F)cc4F)c3c2Cl)C1` [Compound 411, (Z)-1-(6-Amino-3,5-difluoro-pyridin-2-yl)-7-[3-(2-amino-1-fluoro-ethylidene)-piperidin-1-yl]-8-chloro-6-fluoro-4-oxo-1,4-dihydro-quinoline-3-carboxylic acid], the MIC is 0.06 µg/mL (≈ 0.117 µM) under setting [1]; 1 µg/mL (≈ 1.95 µM) under setting [2]; > 16 µg/mL under setting [3]; > 16 µg/mL under setting [4]; 16 µg/mL (≈ 31.3 µM) under setting [5].

Source of the values: patent US20090156577A1, “7-AMINO ALKYLIDENYL-HETEROCYCLIC QUINOLONES AND NAPHTHYRIDONES” (priority 2004, published 2009).
